From ChEMBL document CHEMBL1143830, “Compartmental pharmacokinetic analysis of oral amprenavir with secondary peaks” (Antimicrob Agents Chemother, 2007)

Key:
Type in all cases: ADME, organism-based
[1] = Elimination half life at beta phase in HIV-seronegative human at 600 mg, po by two compartment model; details: in vivo
[2] = Total clearance in HIV-seronegative human at 600 mg, po by two compartment model; details: in vivo
[3] = Central volume of distribution in HIV-seronegative human at 600 mg, po by two compartment model; details: in vivo, read-out: Vc/F
[4] = Distribution half life at alpha phase in HIV-seronegative human at 600 mg, po by two compartment model; details: in vivo

- half-life [1]: 15.8 h
- CL/F [2]: 19.4 mL/min/kg
- Vd/F [3]: 1.21 L/kg
- half-life [4]: 0.547 h
Structure (SMILES): CC(C)CN(C[C@@H](O)[C@H](Cc1ccccc1)NC(=O)O[C@H]1CCOC1)S(=O)(=O)c1ccc(N)cc1 [AMPRENAVIR]
